Experimental data: US20220202799A1, “PHARMACEUTICAL FORMULATIONS CONTAINING P2Y14 ANTAGONISTS” (priority 2019, published 2022)
Read-outs that look alike come from different tables or passages of the source. Marks after values point to notes of the source that are not given here.

Key:
[1] = Solubility of PPTN in various aqueous and organic solvents; assay type: physicochemical; conditions: thermodynamic from solid, PPTN HCl salt, room temperature, read-out: Solubility Estimate
Method: The solubility of PPTN in various aqueous and organic solvents was tested. Test media were prepared, and 5 mg/mL solid PPTN (HCl salt) was added at room temperature. If all PPTN dissolved under these conditions, additional PPTN was added to a total of 10 mg/mL. After 24 hours, undissolved material was removed, and the concentration of PPTN in the supernatant was analyzed by HPLC.

[2] = Stability of PPTN in SBECD-containing solution under various storage conditions (UHPLC-UV); assay type: physicochemical; conditions: 9 mg/mL PPTN, 12% SBECD; for [PPTN]: in mg/mL
Method: The stability of PPTN in SBECD-containing solutions was analyzed under various storage conditions. 20-mL glass vials containing 10 mL of a solution containing 9 mg/mL PPTN and 12% SBECD, as described above, were incubated under various conditions as described in Table 10.
Samples were analyzed by UHPLC-UV as described in Table 11.

[3] = Urine PPTN concentration after single bolus intravenous injection; assay type: in vivo; conditions: male rats; single bolus intravenous injection 0.85, 2.9 or 8.5 mg/kg
Method: The pharmacokinetics of PPTN (KB-1801) in male rats receiving single bolus intravenous injections of SBECD-containing solutions were analyzed. Three cohorts of four rats each were given a single dose of PPTN (KB-1801) at 0.85 mg/kg, 2.9 mg/kg, or 8.5 mg/kg in 1 mL dosing volume.

[4] = Plasma concentrations during 24-hour continuous intravenous infusion; assay type: in vivo, Sprague-Dawley rats; conditions: for Female/Male C24h Ratio: 24-hour intravenous infusion; for concentration at 1 h / concentration at 2 h / concentration at 4 h / concentration at 6 h / concentration at 8 h / concentration at 24 h: Sprague-Dawley, rat, plasma, iv
Method: (§1) The safety and pharmacokinetics of PPTN (KB-1801) in rats receiving continuous intravenous injections of SBECD-containing solutions were analyzed. Three cohorts of six male and six female rats each were given continuous intravenous infusion of PPTN (KB-1801) at 10 mg/kg/day, 30 mg/kg/day or 100 mg/kg/day in a dosing solution containing PPTN at 0.25 mg/mL, 0.75 mg/mL or 2.5 mg/mL and SBECD at about 3.8%. Dosing volume was 40 mIkg/day. [table]

rats = assay: Safety of PPTN/SBECD formulations during continuous intravenous infusion; assay type: in vivo; conditions: male Sprague-Dawley rat; 72-hour intravenous infusion at 100 mg/kg
Method: as §1, with “mIkg/day.” for “mIkg/day. [table]”

[5] = female, 10 mg/kg, female Sprague-Dawley rats, 24-hour intravenous infusion at 10 mg/kg, read-out: Plasma concentration, Mean
[6] = female, 10 mg/kg, female Sprague-Dawley rats, 24-hour intravenous infusion at 10 mg/kg, read-out: Plasma concentration, individual animal
[7] = female, 30 mg/kg, female Sprague-Dawley rats, 24-hour intravenous infusion at 30 mg/kg, read-out: Plasma concentration, Mean
[8] = female, 30 mg/kg, female Sprague-Dawley rats, 24-hour intravenous infusion at 30 mg/kg, read-out: Plasma concentration, individual animal
[9] = female, 100 mg/kg, female Sprague-Dawley rats, 24-hour intravenous infusion at 100 mg/kg, read-out: Plasma concentration, Mean
[10] = female, 100 mg/kg, female Sprague-Dawley rats, 24-hour intravenous infusion at 100 mg/kg, read-out: Plasma concentration, individual animal
[11] = male, 10 mg/kg, male Sprague-Dawley rats, 24-hour intravenous infusion at 10 mg/kg, read-out: Plasma concentration, Mean
[12] = male, 10 mg/kg, male Sprague-Dawley rats, 24-hour intravenous infusion at 10 mg/kg, read-out: Plasma concentration, individual animal
[13] = male, 30 mg/kg, male Sprague-Dawley rats, 24-hour intravenous infusion at 30 mg/kg, read-out: Plasma concentration, Mean
[14] = male, 30 mg/kg, male Sprague-Dawley rats, 24-hour intravenous infusion at 30 mg/kg, read-out: Plasma concentration, individual animal
[15] = male, 100 mg/kg, male Sprague-Dawley rats, 24-hour intravenous infusion at 100 mg/kg, read-out: Plasma concentration, Mean
[16] = male, 100 mg/kg, male Sprague-Dawley rats, 24-hour intravenous infusion at 100 mg/kg, read-out: Plasma concentration, individual animal

## O=C(O)c1cc(-c2ccc(C3CCNCC3)cc2)c2ccc(-c3ccc(C(F)(F)F)cc3)cc2c1 [KB-1801, 4-[4-(piperidin-4-yl)phenyl]-7-[4-(trifluoromethyl)phenyl]-2-naphthoic acid]
[1]; organic solvent or mixture, DMAc, pH 1-2
  solubility at 24 h: > 100 mg/mL
[1]; organic solvent or mixture, NMP, pH 1-2
  solubility at 24 h: > 100 mg/mL
[1]; organic solvent or mixture, PEG 400, pH ~2
  solubility at 24 h: ~25 mg/mL
[1]; organic solvent or mixture, ethanol, pH ~2
  solubility at 24 h: 25 to 30 mg/mL
[1]; organic solvent or mixture, propylene glycol, pH ~2
  solubility at 24 h: 40 to 50 mg/mL
[1]; water with 1% DMAc, water w/ 1% DMAc, pH 2-3, 24 hours
  solubility at 24 h: 0.1 to 0.5 mg/mL
[2]; 2-5° C., 1d
  [PPTN]: 8.74
[2]; 2-5° C., 7d
  [PPTN]: 8.69
[2]; 2-5° C., 14d
  [PPTN]: 8.98
[2]; 2-5° C., 28d
  [PPTN]: 8.65
[2]; 25° C., 0d
  [PPTN]: 8.72
[2]; 25° C., 1d
  [PPTN]: 8.75
[2]; 25° C., 7d
  [PPTN]: 8.82
[2]; 25° C., 14d
  [PPTN]: 8.69
[2]; 25° C., 28d
  [PPTN]: 8.71
[2]; 40° C., 1d
  [PPTN]: 8.71
[2]; 40° C., 7d
  [PPTN]: 8.71
[2]; 40° C., 14d
  [PPTN]: 9.25**
[2]; 40° C., 28d
  [PPTN]: 8.73
[2]; 40° C., 28 days
  Degradants in UHPLC-UV trace: No degradants were evident
[2]; 50° C., 1d
  [PPTN]: 8.78
[2]; −20° C., 1d (freeze/thaw)
  [PPTN]: 9.0*
[3]
  Urine concentration compared with plasma: in excess of plasma concentrations
[4]; Group 6, 10 mg/kg
  Female/Male C24h Ratio: 1.36
[4]; Group 7, 30 mg/kg
  Female/Male C24h Ratio: 0.88
[4]; Group 8, 100 mg/kg
  Female/Male C24h Ratio: 0.93
[4]; [5]
  concentration at 1 h: 216 ng/mL
  concentration at 2 h: 281 ng/mL
  concentration at 4 h: 426 ng/mL
  concentration at 6 h: 569 ng/mL
  concentration at 8 h: 526 ng/mL
  concentration at 24 h: 954 ng/mL
[4]; [6]
  concentration at 2 h: 383 ng/mL
  concentration at 4 h: 445 ng/mL
  concentration at 6 h: 726 ng/mL
  concentration at 8 h: 678 ng/mL
  concentration at 24 h: 753 ng/mL
[4]; [7]
  concentration at 1 h: 641 ng/mL
  concentration at 2 h: 1430 ng/mL
  concentration at 4 h: 1530 ng/mL
  concentration at 6 h: 1640 ng/mL
  concentration at 8 h: 1730 ng/mL
  concentration at 24 h: 2500 ng/mL
[4]; [8]
  concentration at 1 h: 603 ng/mL
  concentration at 2 h: 1950 ng/mL
  concentration at 4 h: 1250 ng/mL
  concentration at 6 h: 1390 ng/mL
  concentration at 8 h: 1740 ng/mL
[4]; [9]
  concentration at 1 h: 2040 ng/mL
  concentration at 2 h: 2310 ng/mL
  concentration at 4 h: 5210 ng/mL
  concentration at 6 h: 4300 ng/mL
  concentration at 8 h: 5660 ng/mL
  concentration at 24 h: 8150 ng/mL
[4]; [10]
  concentration at 1 h: 2630 ng/mL
  concentration at 4 h: 4540 ng/mL
  concentration at 6 h: 3550 ng/mL
  concentration at 8 h: 6390 ng/mL
  concentration at 24 h: 5590 ng/mL
[4]; [11]
  concentration at 1 h: 216 ng/mL
  concentration at 2 h: 276 ng/mL
  concentration at 4 h: 378 ng/mL
  concentration at 6 h: 417 ng/mL
  concentration at 8 h: 416 ng/mL
  concentration at 24 h: 703 ng/mL
[4]; [12]
  concentration at 1 h: 216 ng/mL
  concentration at 2 h: 327 ng/mL
  concentration at 6 h: 508 ng/mL
  concentration at 8 h: 430 ng/mL
[4]; [13]
  concentration at 1 h: 1020 ng/mL
  concentration at 2 h: 1100 ng/mL
  concentration at 4 h: 1320 ng/mL
  concentration at 6 h: 1470 ng/mL
  concentration at 8 h: 1500 ng/mL
  concentration at 24 h: 2830 ng/mL
[4]; [14]
  concentration at 4 h: 1460 ng/mL
  concentration at 6 h: 1170 ng/mL
  concentration at 8 h: 1450 ng/mL
  concentration at 24 h: 2880 ng/mL
[4]; [15]
  concentration at 1 h: 2120 ng/mL
  concentration at 2 h: 2760 ng/mL
  concentration at 4 h: 3940 ng/mL
  concentration at 6 h: 6660 ng/mL
  concentration at 8 h: 5770 ng/mL
  concentration at 24 h: 8740 ng/mL
[4]; [16]
  concentration at 1 h: 1530 ng/mL
  concentration at 4 h: 3560 ng/mL
  concentration at 8 h: 6520 ng/mL
  concentration at 24 h: 10700 ng/mL
rats
  Mortality, animal 16003: NS: No Sample. Animal 16003 died shortly after the 24h timepoint according to CRL.
